Test results taken from patent US11149046B2, “Antibacterial sideromycins” (Hsiri Therapeutics, Inc., priority 2014, dated 2021).
Values after ≈ are worked out from the molar mass of the structure shown. “Also recorded” adds a separate entry of the source. Like-named read-outs stand apart in the source and are kept apart here.

Assays:
[1] = system: P. aeruginosa KW799/wt; assay: MIC determination; assay type: cell-based, Pseudomonas aeruginosa
Excerpt: (§1) Table 3 that was included in the first Example 4 section provides antibacterial data for the first synthetic sideromycins we prepared and studied. The second Example 4 section elaborated and expanded on that data with inclusion of representative antibacterial data in the text and associated pictures of Petri dish assays. MIC (minimum inhibition concentration) is given in μM and AD (agar diffusion zones of inhibition are given in mm from Kirby-Bauer Petri dish growth inhibition studies).

[2] = system: Pa4; assay: MIC determination; assay type: cell-based, Pseudomonas aeruginosa
Excerpt: as §1

[3] = system: Pa6; assay: MIC determination; assay type: cell-based, Pseudomonas aeruginosa; conditions: read-out: MIC
Excerpt: (§2) MIC (minimum inhibition concentration) is given in μM and AD (agar diffusion zones of inhibition are given in mm from Kirby-Bauer Petri dish growth inhibition studies).

[4] = system: Pa-Da-1304 CF patient isolate; assay: MIC determination; assay type: cell-based, Pseudomonas aeruginosa
Excerpt: as §2
We obtained a clinical isolate of Pseudomonas from a cystic fibrosis patient.

[5] = system: A. baumannii ATCC 17961; assay: MIC determination; assay type: cell-based, Acinetobacter baumannii; conditions: read-out: MIC
Excerpt: as §1

[6] = Stability assay in media; assay type: physicochemical
Excerpt: The initial antibacterial assay shown in Table 6 indicated activity against select strains of Pseudomonas and/or Acinetobacter. However, the reduction of activity at higher concentrations but excellent activity at lower, drug like concentrations, raised the concern that either the conjugates were unstable or some of the siderophore component remained in the final conjugate and at higher concentrations, the siderophore growth promotion would compete for the sideromycin growth inhibition. The possible instability was considered to be due to the presence of the short succinate linker that upon bacterial uptake and iron removal would promote intramolecular release of the antibiotic component and regeneration of the siderophore with subsequent growth promotion effects. […] Meanwhile, the assays were repeated with intentional addition (titration with) of the siderophore component itself to the sideromycins. […] Therefore, each of these mixed ligand sideromycins has been resynthesized and rigorously purified. […] MIC antibacterial assays are being repeated with the newly prepared samples. […] Thus, the mixed ligand system has the potential to be a very potent and selective anti-Acinetobacter sideromycin.

[7] = system: PC3
[8] = system: MCF7
[9] = system: Hela
[10] = system: P. aeruginosa KW799/61 (permeability mutant); assay: microbe, parasite or virus in culture; assay type: cell-based, Pseudomonas aeruginosa; conditions: Table 5
Excerpt: as §2

[11] = system: Pseudomonas aeruginosa 01 (Pa01); assay: MIC determination; assay type: cell-based
Excerpt: as §1

[12] = system: Pseudomonas aeruginosa KW799/wt; assay: Agar diffusion (Kirby-Bauer) assay; assay type: cell-based; conditions: wild type Pseudomonas; FIG. 8, 9, 12
Excerpt: as §1

[13] = system: Pseudomonas aeruginosa KW799/61; assay type: cell-based; conditions: outer membrane permeable mutant; FIG. 9 center panel
Excerpt: as §2

[14] = system: Acinetobacter baumannii ATCC 17961; assay: Agar diffusion (Kirby-Bauer) assay, with and without hydrogel; assay type: cell-based; conditions: Acinetobacter; FIG. 8, 9, 10
Excerpt: as §1
We investigated whether the sideromycin absorbed in the gel be able to diffuse out of the gel and into the agar to effect antibacterial growth. As a control, the sideromycin alone, without gel, was added in a separate 9 mm well, as usual.
The second question was whether the sideromycin continue to be released and be able to effect bacterial growth inhibition over extended periods. Thus, additional identical agar plates were prepared and stored at 4° C. for 24, 48 and 72 hours to allow diffusion of the sideromycin (control and gel forms) into the agar before allowing the bacteria to grow in an incubator. Then after each time period, the Petri dishes were incubated at 37° C. for 20 hours to promote bacteria growth in the agar. […] The study has been extended to as long as 168 hours (one week) with retention of antibiotic effectiveness.

[15] = system: Acinetobacter; assay: Murine Survival Experiment with Acinetobacter; assay type: in vivo; conditions: 50 mg/kg IV at +30 min and +4 hr
Procedure: In vivo data for murine survival with Acinetobacter is shown in Table 9 below and graphically in FIG. 14. In the experiments, 10^8 Acinetobacter was administered IP at time 0 on Day 1, and antibiotic was administered twice IV at +30 min and +4 hr

[16] = system: A. baumannii BAA1710; assay: Antibacterial activity of MG-1-189 and sulbactam; conditions: single agent
[17] = system: A. baumannii BAA1793; assay: Antibacterial activity of MG-1-189 and sulbactam; conditions: single agent
[18] = system: A. baumannii BAA1797; assay: Antibacterial activity of MG-1-189 and sulbactam; conditions: single agent
[19] = system: A. baumannii BAA1800; assay: Antibacterial activity of MG-1-189 and sulbactam; conditions: single agent
[20] = system: strains of Pseudomonas and Acinetobacter; assay: Antibacterial activity, general statements; assay type: cell-based; conditions: general statements of the text
Procedure: Antibiotic activity was determined using agar diffusion assays against representative Gram-negative bacteria, including Pseudomonas aeruginosa (Pa6), and several multidrug resistant forms of Acinetobacter baumannii. Representative results are shown in Table 1 and a corresponding picture of an actual petri dish showing the agar diffusion results (FIG. 4). […].

[21] = Cytotoxicity assay; conditions: human, PC3 cells
[22] = Cytotoxicity assay; conditions: human, MCF7 cells
[23] = Cytotoxicity assay; conditions: human, HeLa cells

Q: Which MIC ([1]; read-out: MIC) does the source give for O=C(CCC(=O)N(CCCCNC(=O)c1cccc(O)c1O)CCCNC(=O)c1cccc(O)c1O)NCCCCCN(O)C(=O)CCCC(=O)NC(C(=O)NC1C(=O)N2C(C(=O)O)=C(Cl)CCC12)c1ccccc1 (centres unmarked) [MG-1-227] here?
A: 0.2 µM (≈ 0.213 µg/mL)

Q: And the MIC [2]?
A: > 50 µM

Q: And the MIC ([3]; beta-lactamase producer strain)?
A: > 50 µM

Q: And the MIC ([4]; clinical isolate from a cystic fibrosis patient)?
A: > 50 µM

Q: And the MIC [5]?
A: 0.025 µM (≈ 0.0266 µg/mL)

Q: And the “stability in media (in words)” value [6]?
A: showed the desired stability

Q: What about the IC50 [7] of the same compound?
A: 15 µM

Q: What about the IC50 [8] of the same compound?
A: 11 µM

Q: And the IC50 [9]?
A: > 20 µM

Q: What does the source list for N[C@@H](C(=O)N[C@@H]1C(=O)N2C(C(=O)O)=C(Cl)CC[C@H]12)c1ccccc1 [loracarbef, reference compound]?
A: MIC ([1]; Table 5, read-out: MIC): >200 µM; MIC ([1]; Table 7, read-out: MIC): >200 µM; MIC ([2]; Table 5): >200 µM; MIC [10]: 50 µM (≈ 17.5 µg/mL); MIC ([3]; Table 5): >200 µM; MIC ([4]; Table 5): >200 µM; susceptibility of the clinical isolate (in words) ([4]; preliminary tests): resistant; MIC ([5]; Table 5, head prints A. baumannii only): >200 µM; MIC ([5]; Table 7): >200 µM; MIC ([11]; Table 5, read-out: MIC): >200 µM; MIC ([11]; Table 7, read-out: MIC): >200 µM; zones of inhibition (in words) [12]: inactive; zones of inhibition (in words) [13]: very small zone of inhibition; zones of inhibition (in words) [14]: inactive; also recorded: no inhibition; murine survival (surviving mice) ([15]; D 1, 10^8 Acinetobacter IP): 6; murine survival (surviving mice) ([15]; D 2): 2; murine survival (surviving mice) ([15]; D 3): 2; murine survival (surviving mice) ([15]; D 4): 2; murine survival (surviving mice) ([15]; D 5): 2; murine survival (surviving mice) ([15]; D 6): 2; murine survival (surviving mice) ([15]; D 7): 2; Antibacterial activity (MIC) [16]: >25 µM; Antibacterial activity (MIC) [17]: >25 µM; Antibacterial activity (MIC) [18]: >25 µM; Antibacterial activity (MIC) [19]: >25 µM

Q: For CC(=O)Oc1cccc(C(=O)NCCCCN(CCCNC(=O)c2cccc(OC(C)=O)c2OC(C)=O)C(=O)CCC(=O)NCCCCCN(OC(C)=O)C(=O)CCC(=O)N[C@@H](C(=O)N[C@@H]2C(=O)N3C2SC(C)(C)[C@@H]3C(=O)O)c2ccccc2)c1OC(C)=O (some centres unmarked) [MG-1-121], which “MIC” value [1] is on record?
A: 0.14 to 0.2 µM

Q: What about the MIC ([1]; Pseudomonas aeruginosa, KW799/WT, Table 6, read-out: MIC) of the same compound?
A: 0.14 to 0.2 µM (≈ 0.176 to 0.252 µg/mL)

Q: And the MIC ([1]; listed as MG-1-239, read-out: MIC)?
A: 0.05 µM (≈ 0.063 µg/mL)

Q: What about the MIC ([3]; Pseudomonas aeruginosa, Table 6) of the same compound?
A: > 50 µM

Q: What about the MIC ([4]; Pseudomonas aeruginosa, clinical isolate from a cystic fibrosis patient) of the same compound?
A: > 50 µM

Q: What about the “MIC” value [11] of the same compound?
A: 0.39 to 0.55 µM

Q: And the MIC ([11]; Pseudomonas aeruginosa, Table 6, read-out: MIC)?
A: 0.39 to 0.55 µM (≈ 0.491 to 0.693 µg/mL)

Q: What about the MIC ([11]; Pseudomonas aeruginosa, read-out: MIC) of the same compound?
A: 0.2 µM (≈ 0.252 µg/mL)

Q: What about the “stability in media (in words)” value ([6]; incubated in media under conditions that mimic the antibacterial assays, LC/MS) of the same compound?
A: expected loss of acetyl groups

Q: And the “antibacterial activity (in words)” value [20]?
A: broad spectrum activity

Q: What about the IC50 [21] of the same compound?
A: > 20 µM

Q: What about the IC50 [22] of the same compound?
A: > 20 µM

Q: And the IC50 [23]?
A: > 20 µM
